From US10722597B2, “Cyclodextrin-panobinostat adduct” (MIDATECH LTD., priority 2016, dated 2020)

Legend:
[1] = system: HEPG2 (Hepatocellular carcinoma) cell line; assay: MTT cell viability (cytotoxicity); format: cell-based; conditions: HEPG2, 48 or 72 hrs exposure
Description: (§1) Error bars indicate plus or minus standard deviation of triplicate samples. N=1 experimental replicate.
(§2) Cell viability was then assessed using MTT reagent.

[2] = system: U87MG (Glioblastoma) cell line; assay: MTT cell viability (cytotoxicity); format: cell-based; conditions: 48 or 72 hrs exposure
Description: as §1, §2

[3] = Solubility of panobinostat free base in aqueous media; format: physicochemical
Description: The pH of the first aqueous solution is in the range 2.0 to 4.0, for example 2.5 to 3.5. Preferably, the pH of the first aqueous solution is about 3.0.
It is similarly insoluble in concentrated aqueous solutions of 2-hydroxypropyl-β-cyclodextrin (HP-β-CD) (450 mg/ml).

[4] = HPLC stability of 10 mM panobinostat stock solutions at room temperature; format: physicochemical
Description: Samples were diluted to allow analysis by HPLC (to avoid overloading the system). Peak areas were measured for both solutions at time 0, 100 h and 150 h post preparation. Samples were stored at room temperature over the course of the analysis. Percentage change was calculated based on the peak area and compared to analysis at time zero. One replicate was analysed and 7.2 μl was injected (equivalent to 0.25 μg on column) for each sample. The concentration of the stock solutions assessed was 10 mM. Column: Ascentis Express Peptide, ES-C18, 10 cm×4.6 mm Mobile phases: 0.1% trifluoroacetic acid (TFA) in acetonitrile (organic) and 0.1% trifluoroacetic acid in water HPLC: Agilent 1260 infinity HPLC conditions used: […]

| Molecule | Toxicity (cell viability, MTT) [1] | Toxicity (cell viability, MTT) [2] | solubility ([3]; aqueous buffer, thermodynamic from solid, free base, citrate buffer at pH 3.0, read-out: Soluble concentration in citrate buffer) | Solubility in citrate buffer ([3]; citrate buffer at pH 3.0) | Solubility in concentrated aqueous 2-hydroxypropyl-β-cyclodextrin ([3]; free base, HP-β-CD 450 mg/ml) | Solubility in water ([3]; free base, water) | Decrease of Panobinostat concentration ([4]; DMSO solution, 100 hrs) | Decrease of Panobinostat concentration ([4]; DMSO solution, 150 hrs) | Decrease of Panobinostat concentration ([4]; citrate solution, 100 hrs) | Decrease of Panobinostat concentration ([4]; citrate solution, 150 hrs) |
| --- | --- | --- | --- | --- | --- | --- | --- | --- | --- | --- |
| 2-hydroxypropyl-β-cyclodextrin | essentially non-toxic | essentially non-toxic |  |  |  |  |  |  |  |  |
| Cc1[nH]c2ccccc2c1CCNCc1ccc(/C=C/C(=O)NO)cc1 [Panobinostat, 2-(E)-N-hydroxy-3-[4[[[2-(2-methyl-1H-indol-3-yl)ethyl]amino]methyl]phenyl]-2-propenamide] |  |  | ≥ 10 mM | soluble | insoluble | poorly soluble | 2.8% | 4.4% | 0.4% | 1% |
